Results as given in BindingDB's records for doi:10.1021/acs.jmedchem.6b01363 (Genentech, 2017).

These molecules were tested against Transcription factor p65 (Human, UniProt Q04206) (assay: Inhibition of TNF-alpha-stimulated RELA translocation from cytoplasm to nucleus in human HeLa cells preincubated for 4.5 hrs followed by TNF-alpha stimulation measured after 30 mins).
Sequence of Transcription factor p65 (Q04206 whole entry): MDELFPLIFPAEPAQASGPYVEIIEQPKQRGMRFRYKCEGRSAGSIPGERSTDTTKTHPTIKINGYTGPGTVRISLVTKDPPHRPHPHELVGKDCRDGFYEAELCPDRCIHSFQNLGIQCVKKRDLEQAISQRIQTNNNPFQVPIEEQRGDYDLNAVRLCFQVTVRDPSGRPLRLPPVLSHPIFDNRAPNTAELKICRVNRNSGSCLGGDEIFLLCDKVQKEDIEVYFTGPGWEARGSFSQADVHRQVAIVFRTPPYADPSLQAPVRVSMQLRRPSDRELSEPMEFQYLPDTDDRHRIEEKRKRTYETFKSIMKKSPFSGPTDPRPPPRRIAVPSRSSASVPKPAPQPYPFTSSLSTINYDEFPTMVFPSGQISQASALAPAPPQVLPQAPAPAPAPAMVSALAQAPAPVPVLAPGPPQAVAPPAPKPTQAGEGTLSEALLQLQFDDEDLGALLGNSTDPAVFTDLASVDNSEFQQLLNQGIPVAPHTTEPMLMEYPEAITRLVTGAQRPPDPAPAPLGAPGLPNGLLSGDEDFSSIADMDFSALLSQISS

IC50, > 20 µM:
Cc1cc([C@](C)(O)C#Cc2cc3c(cc2F)OCCn2cc(C(N)=O)nc2-3)no1 [US9034866, 6]
CNC(=O)c1c(C(N)=O)nc2n1CCOc1ccc(C#C[C@@](C)(O)c3cc(C)on3)cc1-2 [US9034866, 96]
Cc1cc([C@](C)(O)C#Cc2cc3c(cc2F)C2CC(C2)n2cc(C(N)=O)nc2-3)no1 [US9034866, 129]
